This is an account of results in PubChem BioAssay AID248 (DTP/NCI, 2004).

The test system of the experiment is L1210 leukemia ip in BDF1 mice, survival T/C. Kind of experiment: NCI In Vivo Anticancer Drug Screen. Data for tumor model L1210 Leukemia (intraperitoneal) in B6D2F1 (BDF1) mice. The following applies: endpoint: mean survival time, higher = longer survival. The essentials: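 Value reflects the ratio of survival in compound-treated mice to survival in vehicle-treated controls, with both groups carrying the same transplanted tumor.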

Setting [1] is: dose: 100.0 mg/kg/injection, schedule: Q04DX003 (ip), vehicle: saline with Tween-80.
Where [2] appears, read: dose: 200.0 mg/kg/injection, schedule: Q04DX003 (ip), vehicle: saline with Tween-80.
Setting [3] is: dose: 400.0 mg/kg/injection, schedule: Q04DX003 (ip), vehicle: saline with Tween-80.
[4] abbreviates: dose: 100.0 mg/kg/injection, schedule: Q01DX001 (ip), vehicle: Klucel (hydroxypropylcellulose) (HPC).
[5] abbreviates: dose: 100.0 mg/kg/injection, schedule: Q04DX003 (ip), vehicle: Klucel (hydroxypropylcellulose) (HPC).
Setting [6] is: dose: 200.0 mg/kg/injection, schedule: Q04DX003 (ip), vehicle: Klucel (hydroxypropylcellulose) (HPC).
[7] abbreviates: dose: 50.0 mg/kg/injection, schedule: Q04DX003 (ip), vehicle: Klucel (hydroxypropylcellulose) (HPC).
[8] abbreviates: dose: 50.0 mg/kg/injection, schedule: Q01DX009 (ip), vehicle: saline with Tween-80.
[9] abbreviates: dose: 100.0 mg/kg/injection, schedule: Q01DX009 (ip), vehicle: saline with Tween-80.
[10] abbreviates: dose: 200.0 mg/kg/injection, schedule: Q01DX009 (ip), vehicle: saline with Tween-80.
The mark [11] stands for this setting: dose: 100.0 mg/kg/injection, schedule: Q01DX009 (ip), vehicle: Klucel (hydroxypropylcellulose) (HPC).
The mark [12] stands for this setting: dose: 200.0 mg/kg/injection, schedule: Q01DX009 (ip), vehicle: Klucel (hydroxypropylcellulose) (HPC).

Where “and” joins values, the source holds several entries; their conditions need not be identical. Equal values may be shown once. Toxic doses and inconclusive results are not listed.

In the case of `CC[n+]1cccc(NC(=O)c2ccc(NC(=O)c3ccc(C(=O)Nc4ccc(C(=O)Nc5ccc[n+](CC)c5)cc4)cc3)cc2)c1`, the T/C was 110 % of control (dose: 0.25 mg/kg/injection, schedule: Q01DX009 (ip), vehicle: saline); 115 % of control and 117 % of control (dose: 4.0 mg/kg/injection, schedule: Q01DX001 (ip), vehicle: saline); 157 % of control and 160 % of control (dose: 4.0 mg/kg/injection, schedule: Q01DX009 (ip), vehicle: saline); 120 % of control (dose: 4.4 mg/kg/injection, schedule: Q01DX Z (ip), vehicle: carboxymethylcellulose (CMC)); 92 % of control (dose: 6.7 mg/kg/injection, schedule: Q01DX Z (ip), vehicle: carboxymethylcellulose (CMC)); 228 % of control (dose: 8.0 mg/kg/injection, schedule: Q01DX009 (ip), vehicle: saline). Also, the T/C by setting is: (dose: 16.0 mg/kg/injection, schedule: Q01DX009 (ip), vehicle: saline) 121 % of control and 124 % of control; (dose: 32.0 mg/kg/injection, schedule: Q01DX001 (ip), vehicle: saline) 189 % of control; (dose: 64.0 mg/kg/injection, schedule: Q01DX001 (ip), vehicle: saline) 229 % of control.
With `CCOC(=O)c1cnc(SC)nc1Nc1cccc(C)c1`, the T/C is 86 % of control under setting [1], 91 % of control under setting [2] and 86 % of control under setting [3].
Consider `O=Nc1ccc(O)c(Cl)c1`, for which the T/C is 95 % of control under setting [4] and 98 % of control (dose: 200.0 mg/kg/injection, schedule: Q01DX001 (ip), vehicle: Klucel (hydroxypropylcellulose) (HPC)).
Consider `CC(=O)NCC(O)C(O)C(/C=N/Nc1ccccc1)=N/Nc1ccccc1` (stereo not drawn), for which the T/C reads like this: (dose: 50.0 mg/kg/injection, schedule: Q04DX002 (ip), vehicle: saline with Tween-80) 91 % of control; (dose: 100.0 mg/kg/injection, schedule: Q04DX002 (ip), vehicle: saline with Tween-80) 87 % of control; (dose: 200.0 mg/kg/injection, schedule: Q04DX002 (ip), vehicle: saline with Tween-80) 95 % of control.
For the compound `O=C(O)c1ccccc1CC(O)(c1ccccc1)C(O)(Cc1ccccc1C(=O)O)c1ccccc1` (stereo not drawn), the T/C reads like this: (dose: 100.0 mg/kg/injection, schedule: Q01DX001 (ip), vehicle: carboxymethylcellulose (CMC)) 94 % of control; (dose: 200.0 mg/kg/injection, schedule: Q01DX001 (ip), vehicle: carboxymethylcellulose (CMC)) 102 % of control; (dose: 400.0 mg/kg/injection, schedule: Q01DX001 (ip), vehicle: carboxymethylcellulose (CMC)) 96 % of control.
As for `CC1[N-]CCC[N-]CCC[N-]C(C)C2CCCC1[N-]2.[Ni+2].[O-][Cl+3]([O-])([O-])O` (stereo not drawn), the T/C is, setting by setting: (dose: 25.0 mg/kg/injection, schedule: Q04DX002 (ip), vehicle: saline) 92 % of control; (dose: 50.0 mg/kg/injection, schedule: Q04DX002 (ip), vehicle: saline) 89 % of control; (dose: 100.0 mg/kg/injection, schedule: Q04DX002 (ip), vehicle: saline) 92 % of control.
On to `CC1C2CC(C3(C)OCCO3)CCC2(C)CCC12OCCO2` (stereo not drawn), for which the T/C is, setting by setting: under setting [5], 101 % of control; under setting [6], 106 % of control; (dose: 400.0 mg/kg/injection, schedule: Q04DX003 (ip), vehicle: Klucel (hydroxypropylcellulose) (HPC)) 106 % of control.
As to `CCOC(=O)C(CC)(OO)c1ccncc1Br` (stereo not drawn), the T/C was 101 % of control (dose: 25.0 mg/kg/injection, schedule: Q01DX001 (ip), vehicle: Klucel (hydroxypropylcellulose) (HPC)); 104 % of control (dose: 50.0 mg/kg/injection, schedule: Q01DX001 (ip), vehicle: Klucel (hydroxypropylcellulose) (HPC)); 101 % of control under setting [7]; 100 % of control and 101 % of control under setting [4]; 91 % of control under setting [5]; 92 % of control under setting [6].
`CC(C)N(C(=S)SSC(=S)N(C(C)C)C(C)C)C(C)C`: the T/C runs as follows: under setting [8], 97 % of control; under setting [9], 101 % of control; under setting [10], 97 % of control.
For `S=C(NCC1CCCO1)Nc1cccc2ccccc12` (stereo not drawn), the T/C reads like this: (dose: 100.0 mg/kg/injection, schedule: Q04DX002 (ip), vehicle: Klucel (hydroxypropylcellulose) (HPC)) 95 % of control; (dose: 200.0 mg/kg/injection, schedule: Q04DX002 (ip), vehicle: Klucel (hydroxypropylcellulose) (HPC)) 91 % of control; (dose: 400.0 mg/kg/injection, schedule: Q04DX002 (ip), vehicle: Klucel (hydroxypropylcellulose) (HPC)) 95 % of control.
For `CCOCC(O)(c1ccc(Cl)cc1)c1ccc(Cl)cc1`, the T/C under setting [1] was 106 % of control, the T/C under setting [2] is 95 % of control and the T/C under setting [3] was 102 % of control.
Take `CC(=O)OC1=CC2(OC(C)=O)CC1C1C(=O)OC(=O)C12` (stereo not drawn): the T/C (dose: 100.0 mg/kg/injection, schedule: Q01DX001 (ip), vehicle: saline) is 101 % of control; the T/C (dose: 100.0 mg/kg/injection, schedule: Q04DX003 (ip), vehicle: saline) is 96 % of control; the T/C (dose: 200.0 mg/kg/injection, schedule: Q01DX001 (ip), vehicle: saline) was 98 % of control; the T/C (dose: 200.0 mg/kg/injection, schedule: Q04DX003 (ip), vehicle: saline) was 96 % of control; the T/C (dose: 400.0 mg/kg/injection, schedule: Q01DX001 (ip), vehicle: saline) was 88 % of control; the T/C (dose: 400.0 mg/kg/injection, schedule: Q04DX003 (ip), vehicle: saline) is 86 % of control.
For the compound `CCCCCCCCCCCCCCCCCc1nc2nc(Cl)c(Cl)nc2[nH]1`, the T/C under setting [8] is 91 % of control; the T/C under setting [9] was 91 % of control; the T/C under setting [1] is 98 % of control and 89 % of control; the T/C under setting [10] is 91 % of control; the T/C under setting [2] is 96 % of control; the T/C (dose: 400.0 mg/kg/injection, schedule: Q01DX009 (ip), vehicle: saline with Tween-80) is 93 % of control. Moreover, under setting [3], the T/C is 94 % of control and 90 % of control.
For the compound `OCCNCc1ccc(O)cc1`, the T/C (dose: 100.0 mg/kg/injection, schedule: Q01DX009 (ip), vehicle: water) is 100 % of control; the T/C (dose: 100.0 mg/kg/injection, schedule: Q04DX003 (ip), vehicle: water) is 103 % of control; the T/C (dose: 200.0 mg/kg/injection, schedule: Q01DX009 (ip), vehicle: water) is 105 % of control; the T/C (dose: 200.0 mg/kg/injection, schedule: Q04DX003 (ip), vehicle: water) is 103 % of control; the T/C (dose: 400.0 mg/kg/injection, schedule: Q01DX009 (ip), vehicle: water) is 102 % of control; the T/C (dose: 400.0 mg/kg/injection, schedule: Q04DX003 (ip), vehicle: water) was 103 % of control.
Take `Cc1cnc2c(N)nn(C)c2n1`: the T/C by setting is: (dose: 50.0 mg/kg/injection, schedule: Q01DX009 (ip), vehicle: saline) 102 % of control; (dose: 100.0 mg/kg/injection, schedule: Q01DX009 (ip), vehicle: saline) 110 % of control; (dose: 100.0 mg/kg/injection, schedule: Q04DX003 (ip), vehicle: alcohol) 102 % of control; (dose: 200.0 mg/kg/injection, schedule: Q04DX003 (ip), vehicle: alcohol) 98 % of control.
As to `COc1cc(/C=C(/C)[N+](=O)[O-])ccc1O`, the T/C was 112 % of control (dose: 6.0 mg/kg/injection, schedule: Q01DX009 (ip), vehicle: carboxymethylcellulose (CMC)); 92 % of control (dose: 12.0 mg/kg/injection, schedule: Q01DX009 (ip), vehicle: carboxymethylcellulose (CMC)); 112 % of control (dose: 25.0 mg/kg/injection, schedule: Q01DX009 (ip), vehicle: Klucel (hydroxypropylcellulose) (HPC)); 105 % of control (dose: 25.0 mg/kg/injection, schedule: Q01DX009 (ip), vehicle: carboxymethylcellulose (CMC)); 100 % of control (dose: 50.0 mg/kg/injection, schedule: Q01DX009 (ip), vehicle: Klucel (hydroxypropylcellulose) (HPC)); 100 % of control and 103 % of control (dose: 50.0 mg/kg/injection, schedule: Q01DX009 (ip), vehicle: carboxymethylcellulose (CMC)). The T/C reads like this: under setting [7], 97 % of control; under setting [11], 109 % of control; under setting [5], 105 % of control; under setting [12], 103 % of control; under setting [6], 103 % of control.
Consider `Nc1ccc(Cl)c(C(=O)O)c1`, for which the T/C under setting [11] is 111 % of control; the T/C under setting [12] was 121 % of control; the T/C (dose: 400.0 mg/kg/injection, schedule: Q01DX009 (ip), vehicle: Klucel (hydroxypropylcellulose) (HPC)) was 105 % of control.
